ChEMBL document CHEMBL1201862, “PubChem BioAssay data set” (2004)
The source made the active and inactive calls.

Experiments:
[1] = system: A-375; assay: A375 melanoma cell viability reduction, dose response, counter-screen for MITF modulator project, cherry-pick samples, set 2 (AID 540335); assay type: functional, cell-based; conditions: Homo sapiens
[2] = Luminescence Cell-Based Dose Response HTS to Identify Inhibitors of 5'UTR Stem-Loop Driven Prion Protein mRNA Translation in H4 Neuroglioblastoma Cells. [Related pubchem assays: 1827 (Project Summary), 1813 (Primary HTS)]; assay type: functional
[3] = inhibitors of firefly luciferase expression or activity, dose response, H4 neuroglioma cells, luminescence (AID 1990); assay type: functional, cell-based
[4] = inhibitors of SNCA 5'UTR-driven reporter translation, confirmation, H4 neuroglioma cells, luminescence (AID 1988); assay type: functional, cell-based
[5] = target: T1, Microphthalmia-associated transcription factor (Homo sapiens, UniProt O75030); assay: TRPM1 promoter luciferase signal decrease, dose response, MITF inhibitor project, cell-based, SK-MEL-5, cherry-picked, set 3 (AID 493073); assay type: functional
T1 sequence (O75030 whole entry): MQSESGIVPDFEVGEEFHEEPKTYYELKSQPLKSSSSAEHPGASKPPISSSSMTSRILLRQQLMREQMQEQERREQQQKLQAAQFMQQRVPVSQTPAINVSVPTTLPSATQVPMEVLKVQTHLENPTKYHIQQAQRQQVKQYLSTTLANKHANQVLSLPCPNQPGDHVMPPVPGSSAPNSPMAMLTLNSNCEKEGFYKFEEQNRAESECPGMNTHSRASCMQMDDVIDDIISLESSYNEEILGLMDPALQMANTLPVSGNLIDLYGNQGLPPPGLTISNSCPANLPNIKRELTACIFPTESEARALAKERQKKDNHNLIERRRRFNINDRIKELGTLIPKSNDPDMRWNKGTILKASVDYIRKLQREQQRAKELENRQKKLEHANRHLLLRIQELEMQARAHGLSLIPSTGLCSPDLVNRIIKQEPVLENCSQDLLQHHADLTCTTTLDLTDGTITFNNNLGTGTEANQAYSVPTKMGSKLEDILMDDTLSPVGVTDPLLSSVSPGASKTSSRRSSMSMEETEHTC

[6] = system: A-375; assay: MITF: Counter assay: A375 proliferation Measured in Cell-Based System Using Plate Reader - 2084-03_Inhibitor_Dose_DryPowder_Activity. [Related pubchem assays (depositor defined):AID488944]; assay type: functional; conditions: Homo sapiens
[7] = target: T2, Intestinal-type alkaline phosphatase (Homo sapiens, UniProt P09923); assay: human intestinal alkaline phosphatase activators, dose response, biochemical, luminescence, uHTS hits (AID 463120); assay type: functional
[8] = target: Intestinal-type alkaline phosphatase (Mus musculus, UniProt P24822); assay: PubChem AID 488874; assay type: functional
[9] = target: T3, Alkaline phosphatase, tissue-nonspecific isozyme (Homo sapiens, UniProt P05186); assay: TNAP enzyme activators, dose response, selectivity assay for human IAP activator project, biochemical, TNAP isozyme, human IAP uHTS hits (AID 488886); assay type: functional;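 note: potency of compounds raising TNAP activity as a selectivity check on IAP activators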
T3 sequence (P05186 whole entry): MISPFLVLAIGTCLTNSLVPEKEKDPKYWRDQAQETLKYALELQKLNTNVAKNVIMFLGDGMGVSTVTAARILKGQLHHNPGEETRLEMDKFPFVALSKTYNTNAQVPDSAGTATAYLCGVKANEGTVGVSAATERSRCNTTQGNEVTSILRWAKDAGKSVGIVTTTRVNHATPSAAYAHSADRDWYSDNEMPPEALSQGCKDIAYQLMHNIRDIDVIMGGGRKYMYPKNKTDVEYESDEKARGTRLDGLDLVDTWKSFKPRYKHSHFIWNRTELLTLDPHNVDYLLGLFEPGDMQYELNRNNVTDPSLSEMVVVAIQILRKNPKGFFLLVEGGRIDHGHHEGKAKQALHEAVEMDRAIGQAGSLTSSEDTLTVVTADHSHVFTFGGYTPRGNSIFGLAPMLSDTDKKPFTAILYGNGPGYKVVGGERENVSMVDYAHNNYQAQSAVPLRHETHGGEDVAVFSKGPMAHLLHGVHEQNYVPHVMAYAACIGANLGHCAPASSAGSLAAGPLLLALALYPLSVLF

[10] = target: T2, Intestinal-type alkaline phosphatase; assay: human IAP activators, dose response, biochemical, luminescent, uHTS hits, set 2 (AID 488817); assay type: functional;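 note: potency of activators that raise enzyme activity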
[11] = target: T4, Caspase-6 (Homo sapiens, UniProt P55212); assay: human caspase-6 inhibitors, dose response, biochemical, VEID-R110 fluorescence, cherry-pick (AID 720632)
T4 sequence (P55212 whole entry): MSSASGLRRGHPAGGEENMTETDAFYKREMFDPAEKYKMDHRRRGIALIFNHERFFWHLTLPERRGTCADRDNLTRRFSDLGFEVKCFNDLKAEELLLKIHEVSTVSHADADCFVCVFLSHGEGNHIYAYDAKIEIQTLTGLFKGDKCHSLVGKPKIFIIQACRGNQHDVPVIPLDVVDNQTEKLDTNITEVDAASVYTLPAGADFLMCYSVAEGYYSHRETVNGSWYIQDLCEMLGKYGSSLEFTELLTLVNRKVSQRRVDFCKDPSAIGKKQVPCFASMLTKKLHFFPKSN

[12] = target: G-protein coupled receptor 55 (Homo sapiens, UniProt Q9Y2T6); assay: GPR55 antagonists, SAR follow-up, counter-screen for GPR35 antagonist project, imaging, image-based (AID 2397); assay type: functional
[13] = target: T5, G-protein coupled receptor 35 (Homo sapiens, UniProt Q9HC97); assay: GPR35 antagonists blocking zaprinast-driven arrestin recruitment, primary screen, imaging, U2OS, beta-arrestin-GFP, zaprinast agonist (AID 2058); assay type: functional;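 note: antagonist potency meaning inhibition of agonist-induced arrestin redistribution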
[14] = target: T5, G-protein coupled receptor 35; assay: SAR Analysis for the identification of Selective Antagonists of ERK1/2 Activity in GPR35-Overexpressing U2OS Cells. [Related pubchem assays: 2079, 2058 ]; assay type: functional, cell-based
[15] = target: T6, Kappa-type opioid receptor (Homo sapiens, UniProt P41145); assay type: functional
[16] = target: T6, Kappa-type opioid receptor; assay type: functional; remark: listed apart in the source
[17] = target: Mu-type opioid receptor (Homo sapiens, UniProt P35372); assay: HTS Image-Based Screen for Agonists of the MOR Receptor. [Related pubchem assays (depositor defined):AID1777, AID1785, AID1786, AID2133]; assay type: functional;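 note: imaging of beta-arrestin GFP recruitment into spots after receptor activation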
[18] = target: Beta-galactosidase (Escherichia coli, UniProt Q8VNN2); assay type: functional
[19] = target: T7, Delta-type opioid receptor (Homo sapiens, UniProt P41143); assay: HTS Image-Based Screen for Agonists of the DOR Receptor. [Related pubchem assays (depositor defined):AID1777, AID1786, AID2133]; assay type: functional
[20] = target: T8, Latent membrane protein 1 (Human herpesvirus 4 (strain B95-8), UniProt P03230); assay: TES1-eGFP NF-kB reporter inhibition versus Tet-On dsRED, dose response, selectivity assay for LMP1 NF-kB inhibitor project, imaging, HEK293T, dual-color eGFP/dsRED, cherry-picks (AID 588398); assay type: functional, cell-based
T8 sequence (P03230 whole entry): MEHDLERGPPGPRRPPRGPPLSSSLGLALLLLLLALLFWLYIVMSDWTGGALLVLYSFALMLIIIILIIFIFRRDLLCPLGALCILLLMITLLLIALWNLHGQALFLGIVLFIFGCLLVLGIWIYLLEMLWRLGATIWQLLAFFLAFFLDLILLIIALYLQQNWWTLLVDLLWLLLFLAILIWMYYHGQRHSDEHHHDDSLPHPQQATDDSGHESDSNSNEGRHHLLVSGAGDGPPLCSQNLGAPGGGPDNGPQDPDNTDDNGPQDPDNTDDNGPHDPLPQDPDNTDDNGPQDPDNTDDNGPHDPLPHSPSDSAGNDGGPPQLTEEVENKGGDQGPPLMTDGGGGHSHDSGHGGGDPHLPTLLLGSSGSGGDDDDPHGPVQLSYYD

[21] = target: T7, Delta-type opioid receptor; assay: HTS Image-Based Screen for Antagonists of the DOR Receptor. [Related pubchem assays (depositor defined):AID1777, AID1785, AID1786, AID2133]; assay type: functional

T6 sequence (P41145 whole entry): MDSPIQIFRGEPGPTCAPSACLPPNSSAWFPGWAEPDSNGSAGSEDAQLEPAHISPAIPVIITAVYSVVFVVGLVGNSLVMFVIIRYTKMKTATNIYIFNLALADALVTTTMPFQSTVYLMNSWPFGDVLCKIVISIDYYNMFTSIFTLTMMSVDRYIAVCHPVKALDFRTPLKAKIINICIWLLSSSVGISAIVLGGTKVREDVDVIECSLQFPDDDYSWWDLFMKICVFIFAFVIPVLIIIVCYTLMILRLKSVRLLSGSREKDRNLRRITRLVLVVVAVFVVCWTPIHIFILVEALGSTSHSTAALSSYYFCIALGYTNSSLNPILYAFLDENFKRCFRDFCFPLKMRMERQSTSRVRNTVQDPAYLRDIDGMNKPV
T5 sequence (Q9HC97 whole entry): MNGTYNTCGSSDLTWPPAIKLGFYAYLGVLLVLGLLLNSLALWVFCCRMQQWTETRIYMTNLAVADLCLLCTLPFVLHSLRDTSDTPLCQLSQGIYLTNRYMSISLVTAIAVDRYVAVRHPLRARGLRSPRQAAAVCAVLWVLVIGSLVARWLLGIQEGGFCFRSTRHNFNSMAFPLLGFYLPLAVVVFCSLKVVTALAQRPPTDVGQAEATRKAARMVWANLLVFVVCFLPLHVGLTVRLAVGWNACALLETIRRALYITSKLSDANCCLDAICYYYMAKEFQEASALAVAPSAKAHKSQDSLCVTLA
T7 sequence (P41143 whole entry): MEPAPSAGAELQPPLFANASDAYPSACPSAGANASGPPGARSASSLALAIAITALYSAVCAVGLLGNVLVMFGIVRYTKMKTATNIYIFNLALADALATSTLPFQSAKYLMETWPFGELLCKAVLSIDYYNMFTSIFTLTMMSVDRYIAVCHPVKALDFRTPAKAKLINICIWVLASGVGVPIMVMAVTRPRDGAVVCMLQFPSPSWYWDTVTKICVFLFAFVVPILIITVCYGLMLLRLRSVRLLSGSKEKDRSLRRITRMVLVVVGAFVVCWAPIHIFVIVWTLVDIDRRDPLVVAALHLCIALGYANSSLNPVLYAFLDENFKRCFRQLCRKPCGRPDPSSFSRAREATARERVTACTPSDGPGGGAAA
T2 sequence (P09923 whole entry): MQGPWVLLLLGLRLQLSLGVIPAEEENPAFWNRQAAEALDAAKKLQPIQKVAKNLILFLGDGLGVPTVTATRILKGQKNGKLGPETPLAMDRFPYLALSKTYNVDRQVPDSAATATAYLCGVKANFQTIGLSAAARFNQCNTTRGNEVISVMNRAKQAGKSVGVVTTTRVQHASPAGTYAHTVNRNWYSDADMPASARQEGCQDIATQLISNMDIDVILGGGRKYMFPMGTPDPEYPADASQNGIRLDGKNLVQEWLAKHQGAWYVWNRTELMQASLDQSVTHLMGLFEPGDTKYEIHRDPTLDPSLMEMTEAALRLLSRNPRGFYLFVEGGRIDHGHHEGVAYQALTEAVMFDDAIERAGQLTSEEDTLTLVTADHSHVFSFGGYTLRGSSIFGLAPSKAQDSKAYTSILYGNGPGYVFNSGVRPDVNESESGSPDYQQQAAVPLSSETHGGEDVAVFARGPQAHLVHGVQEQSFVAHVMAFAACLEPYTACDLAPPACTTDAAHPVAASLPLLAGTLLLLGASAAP
Chain of G-protein coupled receptor 55 (Q9Y2T6 whole entry): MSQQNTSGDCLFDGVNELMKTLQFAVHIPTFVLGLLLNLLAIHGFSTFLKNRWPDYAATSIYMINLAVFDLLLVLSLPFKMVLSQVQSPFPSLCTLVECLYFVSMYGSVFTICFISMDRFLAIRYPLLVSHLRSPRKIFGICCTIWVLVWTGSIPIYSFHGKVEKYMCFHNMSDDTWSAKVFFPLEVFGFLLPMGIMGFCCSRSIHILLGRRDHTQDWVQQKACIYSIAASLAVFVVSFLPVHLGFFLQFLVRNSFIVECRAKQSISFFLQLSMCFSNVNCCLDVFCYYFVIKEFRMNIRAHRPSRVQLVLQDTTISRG
Chain of Beta-galactosidase (Q8VNN2 whole entry): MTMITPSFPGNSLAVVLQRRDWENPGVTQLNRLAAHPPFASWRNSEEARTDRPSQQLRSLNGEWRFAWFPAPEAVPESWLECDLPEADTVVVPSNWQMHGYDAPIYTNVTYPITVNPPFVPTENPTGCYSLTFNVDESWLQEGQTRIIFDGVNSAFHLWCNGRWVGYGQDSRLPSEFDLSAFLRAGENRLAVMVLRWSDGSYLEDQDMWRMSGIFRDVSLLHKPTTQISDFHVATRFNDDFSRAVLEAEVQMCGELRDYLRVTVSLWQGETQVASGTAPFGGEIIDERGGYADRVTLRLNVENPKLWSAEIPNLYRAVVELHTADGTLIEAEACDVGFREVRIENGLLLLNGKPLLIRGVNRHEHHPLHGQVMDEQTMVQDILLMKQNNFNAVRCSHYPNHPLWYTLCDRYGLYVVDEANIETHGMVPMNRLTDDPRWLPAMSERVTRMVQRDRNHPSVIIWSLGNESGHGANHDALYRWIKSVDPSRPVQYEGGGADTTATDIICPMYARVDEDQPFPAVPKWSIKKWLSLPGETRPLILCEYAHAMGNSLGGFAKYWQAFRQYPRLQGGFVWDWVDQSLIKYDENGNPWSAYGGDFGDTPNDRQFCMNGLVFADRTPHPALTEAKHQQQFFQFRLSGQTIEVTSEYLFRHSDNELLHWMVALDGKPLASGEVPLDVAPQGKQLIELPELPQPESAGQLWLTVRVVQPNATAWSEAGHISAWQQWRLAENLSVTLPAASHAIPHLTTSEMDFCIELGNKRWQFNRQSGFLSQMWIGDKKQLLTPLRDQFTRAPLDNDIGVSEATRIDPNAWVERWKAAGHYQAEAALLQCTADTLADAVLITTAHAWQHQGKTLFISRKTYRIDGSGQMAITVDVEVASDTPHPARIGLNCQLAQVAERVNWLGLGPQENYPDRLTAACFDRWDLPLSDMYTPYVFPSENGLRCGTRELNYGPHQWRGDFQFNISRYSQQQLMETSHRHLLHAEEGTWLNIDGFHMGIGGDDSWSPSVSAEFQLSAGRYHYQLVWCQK
Chain of Mu-type opioid receptor (P35372 whole entry): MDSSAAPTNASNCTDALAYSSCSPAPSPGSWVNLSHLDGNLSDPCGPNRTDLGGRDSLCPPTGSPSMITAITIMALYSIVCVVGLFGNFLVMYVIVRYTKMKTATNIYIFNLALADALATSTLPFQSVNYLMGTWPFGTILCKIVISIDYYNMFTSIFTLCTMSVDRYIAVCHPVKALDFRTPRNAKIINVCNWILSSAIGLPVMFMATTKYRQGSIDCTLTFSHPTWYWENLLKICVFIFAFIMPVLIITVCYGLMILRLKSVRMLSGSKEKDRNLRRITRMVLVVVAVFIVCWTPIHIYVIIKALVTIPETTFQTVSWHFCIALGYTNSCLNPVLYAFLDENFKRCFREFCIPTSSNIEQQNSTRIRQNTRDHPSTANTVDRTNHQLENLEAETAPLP
Chain of Intestinal-type alkaline phosphatase (Mus musculus, UniProt P24822) (P24822 whole entry): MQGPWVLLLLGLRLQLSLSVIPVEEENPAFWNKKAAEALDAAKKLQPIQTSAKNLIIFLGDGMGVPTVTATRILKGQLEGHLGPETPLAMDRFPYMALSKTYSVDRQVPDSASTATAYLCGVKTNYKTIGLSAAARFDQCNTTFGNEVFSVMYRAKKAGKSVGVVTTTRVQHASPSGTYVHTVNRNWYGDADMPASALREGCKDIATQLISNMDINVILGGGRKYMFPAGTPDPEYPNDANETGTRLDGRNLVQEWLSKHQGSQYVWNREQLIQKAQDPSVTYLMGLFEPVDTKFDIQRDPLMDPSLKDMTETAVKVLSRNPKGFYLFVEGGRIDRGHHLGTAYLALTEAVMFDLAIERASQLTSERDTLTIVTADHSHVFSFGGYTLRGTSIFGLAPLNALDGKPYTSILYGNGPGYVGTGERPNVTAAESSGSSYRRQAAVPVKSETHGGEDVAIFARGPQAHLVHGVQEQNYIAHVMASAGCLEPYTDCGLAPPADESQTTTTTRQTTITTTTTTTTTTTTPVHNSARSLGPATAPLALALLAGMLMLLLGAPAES

Question: With `O=C(O)c1ccccc1C(=O)Nc1ccc(Oc2cccc3ccccc23)cc1` as the molecule, how does the AC50 [1] read?
Answer: The AC50 was > 35 µM (active).

Question: And the EC50 [2]?
Answer: The EC50 was 12.7 µM (active).

Question: What about the EC50 [3] of the same molecule?
Answer: Its EC50 is 6.38 µM (active).

Question: What about the EC50 [4] of the same molecule?
Answer: Its EC50 is 10.4 µM (active).

Question: And the AC50 [5]?
Answer: Its AC50 is 18.8 µM (active).

Question: What about the AC50 [6] of the same molecule?
Answer: Its AC50 is > 35 µM (active).

Question: With `Cc1cccc(OCC(=O)NNC(=O)c2ccc3[nH]cnc3c2)c1` as the molecule, how does the EC50 [7] read?
Answer: The EC50 was 9.75 µM (active).

Question: And the IC50 [8]?
Answer: Its IC50 is > 100 µM (inactive).

Question: What about the EC50 [9] of the same molecule?
Answer: Its EC50 is 17.7 µM (active).

Question: And the EC50 [10]?
Answer: The EC50 was 13.5 µM (active).

Question: What about the AC50 [11] of the same molecule?
Answer: Its AC50 is 44 µM (active).

Question: For `CC(C)c1ccc(NC(=O)CSc2nc3ccsc3c(=O)n2Cc2ccc(C(=O)O)cc2)cc1`, which IC50 [12] is on record?
Answer: Its IC50 is 11.7 µM (inactive).

Question: What about the IC50 [13] of the same molecule?
Answer: Its IC50 is 0.561 µM (active).

Question: And the IC50 [14]?
Answer: The IC50 was 5.68 µM (active).

Question: Which IC50 [15] does the source give for `O=c1[nH]c(Nc2nc3ccccc3o2)nc2c1CCCC2` here?
Answer: Its IC50 is > 32 µM.

Question: What about the IC50 [16] of the same molecule?
Answer: The IC50 was 5.27 µM (active).

Question: And the EC50 [17]?
Answer: The EC50 was > 32 µM (inactive).

Question: And the EC50 [18]?
Answer: The EC50 was > 31.5 µM (inactive).

Question: And the EC50 [19]?
Answer: The EC50 was > 32 µM (inactive).

Question: And the AC50 [20]?
Answer: Its AC50 is 16.8 µM (active).

Question: And the IC50 [21]?
Answer: The IC50 was > 32 µM (inactive).
